The source of these data is patent US7402311B2, “Composition and method for treating non-bacterial cystitis” (priority 2003, dated 2008).

In data set [1] the test system is chronic interstitial cystitis syndromes. The following applies: patients taking quercetin alone; cited from earlier work.
For data set [2], the system named is patients without positive bacterial cultures localized to the prostatic fluid. Description: Example II: double blind study using 30 patients. Format: in vivo. How it is done: A double blind study using 30 patients without positive bacterial cultures localized to the prostatic fluid are enrolled in a double blind study. Seventeen of the patients receive a composition comprised of quercetin in amount of 500 milligrams, bromelin in an amount of 10 milligrams, and papain in an amount of 10 milligrams as the active ingredients thereof. After a randomized study is completed, an additional fifteen patients are treated in an open label study with only the […]. […] The mean symptom score improves from 21.0 to 13.1 in the group receiving quercetin, but from 20.2 to 18.8 in the placebo group. This represents an improvement of 35%. In those patients which receive only the quercetin, without the papain and bromelin, with obtainable secretions, the white blood cell count in the decreases from 16.8 to 5.3, versus a decrease from 13.1 to 8.3 in the placebo patients.

Data set [3] can be described thus: Tests of bioavailability / transmural intestinal absorption of quercetin. It is filed as in vivo. As to conditions: quercetin alone.

For `O=c1c(O)c(-c2ccc(O)c(O)c2)oc2cc(O)cc(O)c12` [quercetin], in data set [1], the pain result was “controlled”, the severe urinary symptoms entry is “least likely to improve” and the symptomatic response entry is reported as “significant”. Also, the “improvement of mean symptom score” value in data set [2] (double blind study) was 35%. Also, the “mean symptom score, after treatment” value in data set [2] (double blind study, end value) was 13.1. For the same compound, the “mean symptom score, before treatment” value in data set [2] (double blind study, start value) stood at 21.0. Also, the “white blood cell count, after treatment” value in data set [2] (patients with obtainable secretions, end value) was 5.3. Further, in data set [2] (patients with obtainable secretions, start value), the “white blood cell count, before treatment” value was determined as 16.8. In addition, in data set [3], the bioavailability result is given as “does not have a high bioavailability” and the transmural intestinal absorption entry is on record as “relatively low”.
